We go through 14 molecules from US10815276B2, “Cell penetrating peptides and methods of making and using thereof” (Entrada Therapeutics, Inc., priority 2014, dated 2020).

The test system of one test is HEK293 cells. Nature of the test: Live-cell confocal microscopy of internalization. The test is classed as cell-based, human. Particulars: for CAP fluorescence in cells (confocal): 5 μM pCAP peptide, 60 min; for Intracellular fluorescence of rhodamine B-labeled peptide: 5 μM peptide, 2 h. Here is the method: To examine the internalization of rhodamine-labeled peptides, 5×10^4 HEK293 cells were plated in a 35 mm glass-bottomed microwell dish (MatTek). […] The cells were gently washed with DPBS twice and imaged on a Visitech Infinity 3 Hawk 2D-array live cell imaging confocal microscope. To detect the internalization of pCAP-containing peptides, HEK293 cells were similarly plated and incubated with the peptide solution (5 μM) at 37° C. for 60 min. After removal of the medium, the cells were gently washed with DPBS containing sodium pervanadate (1 mM) twice and incubated for 10 min in DPBS containing 5 μM nuclear staining dye DRAQS. The resulting cells were washed with DPBS twice and imaged on a spinning disk confocal microscope (UltraView Vox CSUX1 system). To monitor GFP internalization, 5×10^4 HEK293 cells were seeded in a 35 mm glass-bottomed microwell dish and cultured overnight. Cells were treated with cFΦR4-S-S-GFP (1 μM) at 37° C. for 2 h. After removal of the medium, the cells were incubated in DPBS containing 5 μM DRAQS for 10 min. The cells were washed with DPBS twice and imaged on a Visitech Infinity 3 Hawk 2D-array live cell imaging confocal microscope.

Another test deals with HeLa cells. The experiment in a line: Cytoplasmic delivery of pCAP-containing peptides, flow cytometry. The following applies: 10 μM peptide; for Mean fluorescence intensity (MFI) of CAP: 2 h. A general note: A flow cytometer gives signals particle by particle.
Test [1] concerns cell type (e.g., HeLa cells). Nature of the test: Cellular uptake efficiency of cyclic CPPs. The test is classed as cell-based. The following applies: relative to cFΦR4 (290-1F, 100%). The procedure:
In particular embodiments, uptake efficiency is determined by comparing (i) the amount of a cyclic cell-penetrating peptide of the invention internalized by a cell type (e.g., HeLa cells) to (ii) the amount of c(FΦRRRRQ) (290-1F) internalized by the same cell type. To measure cellular uptake efficiency, the cell type may be incubated in the presence of a cell-penetrating peptide of the invention for a specified period of time (e.g., 30 minutes, 1 hour, 2 hours, etc.) after which the amount of the cell-penetrating peptide internalized by the cell is quantified. Separately, the same concentration of c(FΦRRRRQ) (290-1F) is incubated in the presence of the cell type over the same period of time, and the amount of the second peptide internalized by the cell is quantified. Quantification can be achieved by fluorescently labeling the cell-penetrating peptide (e.g., with a FTIC dye) and measuring the fluorescence intensity using techniques well-known in the art.
(§1) Also discussed herein are the CPP sequences in Table 16. All uptake/delivery efficiencies are in Table 17 are relative to that of cFΦR4 (290-1F, 100%). SUV1 are small unilamellar vesicles that mimic the neutral outer membrane of mammalian cells [45% phosphatidylcholine (PC), 20% phosphatidylethanolamine (PE), 20% sphingomyelin (SM), and 15% cholesterol (CHO)]. SUV2 are small unilamellar vesicles that mimic the negatively charged endosomal membrane of mammalian cells [50% PC, 20% PE, 10% phosphatidylinositol (PI), and 20% bis(monoacylglycerol)phosphate].

Test [2] relates to SUV1 (vesicles that mimic the neutral outer membrane of mammalian cells). Nature of the test: Fluorescence polarization membrane binding, SUV1.
Excerpt: as §1
(§2) Measurements were carried out fluorescence polarization using FITC-labeled cyclic peptides against increasing concentrations of vesicles. Experiments were performed at pH 7.4 and 5.5 (pH inside late endosomes).

Test [3] deals with SUV2 (vesicles that mimic the negatively charged endosomal membrane of mammalian cells). Nature of the test: Fluorescence polarization membrane binding, SUV2.
Excerpt: as §1, §2
In general terms: Polarisation of emitted light reports the rotation of a fluorescent probe.

Where [4] appears, read: pH 7.4, read-out: Membrane Binding KD (mM) SUV1 pH 7.4.
[5] abbreviates: pH 5.5, read-out: Membrane Binding KD (mM) SUV2 pH 5.5.
[6] abbreviates: pH 7.4, read-out: Membrane Binding KD (mM) SUV2 pH 7.4.

Like-named read-outs stand apart in the source and are kept apart here. Non-standard residues stand in square brackets, D forms with d. Residues, ends and D or L forms follow the SMILES beside them. No end group written: not given here. *: point of attachment. Lys(5-FITC)NH2 = NC(=O)[C@H](CCCCNC(=S)Nc1ccc2c(c1)C(=O)OC21c2ccc(O)cc2Oc2cc(O)ccc21)N*; Ala(7-OPO3H2-coumarin-4-yl) = N[C@@H](Cc1cc(=O)oc2cc(OP(=O)(O)O)ccc12)C(=O)O; RhodamineB = CCN(CC)c1ccc2c(-c3ccccc3C(=O)*)c3ccc(=[N+](CC)CC)cc-3oc2c1; 2Nal = N[C@@H](Cc1ccc2ccccc2c1)C(=O)O; d2Nal = N[C@H](Cc1ccc2ccccc2c1)C(=O)O; AEEA = NCCOCCOCC(=O)O

On to “Ac-DE(pCap)LI-NH2 (Ac-DE[Ala(7-OPO3H2-coumarin-4-yl)]LI-NH2; SMILES CC[C@H](C)[C@H](NC(=O)[C@H](CC(C)C)NC(=O)[C@H](Cc1cc(=O)oc2cc(OP(=O)(O)O)ccc12)NC(=O)[C@H](CCC(=O)O)NC(=O)[C@H](CC(=O)O)NC(C)=O)C(N)=O) [untagged PCP, reference compound]”, for which, in the test on HEK293 cells, the “CAP fluorescence in cells (confocal)” value is recorded as “failed to enter cells”. Also, the “Mean fluorescence intensity (MFI) of CAP” value with HeLa cells was determined as 30 AU.
As for `N=C(N)NCCC[C@@H]1NC(=O)[C@H](Cc2ccc3ccccc3c2)NC(=O)[C@@H](Cc2ccccc2)NC(=O)[C@H](Cc2ccccc2)NC(=O)[C@H](CCC(=O)N[C@@H](CCCCNC(=S)Nc2ccc3c(c2)C(=O)OC32c3ccc(O)cc3Oc3cc(O)ccc32)C(N)=O)NC(=O)[C@@H](CCCNC(=N)N)NC(=O)[C@H](CCCNC(=N)N)NC(=O)[C@@H](CCCNC(=N)N)NC1=O` [Peptide 290-12F, c(FfΦRrRrQ)] (cyclo(F[dF][2Nal]R[dR]R[dR]E(Lys(5-FITC)NH2))), in test [1], the “Uptake Efficiency (%)” value amounted to 681%. For the same molecule, the Kd stood at 0.8 mM in test [2] (setting [4]), 0.004 mM in test [3] (setting [5]) and 0.026 mM in test [3] (setting [6]).
Regarding `N=C(N)NCCC[C@@H]1NC(=O)[C@H](Cc2ccc3ccccc3c2)NC(=O)[C@@H](Cc2ccccc2)NC(=O)[C@H](CCC(=O)N[C@@H](CCCCNC(=S)Nc2ccc3c(c2)C(=O)OC32c3ccc(O)cc3Oc3cc(O)ccc32)C(N)=O)NC(=O)[C@H](CCCNC(=N)N)NC(=O)[C@@H](CCCNC(=N)N)NC(=O)[C@H](CCCNC(=N)N)NC(=O)[C@@H](CCCNC(=N)N)NC1=O` [Peptide 290-11F, c(fΦRrRrRQ)] (cyclo([2Nal]R[dR]R[dR]RE(Lys(5-FITC)NH2)[dF])), the “Uptake Efficiency (%)” value in test [1] came to 542%. For the same molecule, the Kd was 2.7 mM in test [2] (setting [4]), 0.019 mM in test [3] (setting [5]) and 0.092 mM in test [3] (setting [6]).
Regarding `N=C(N)NCCC[C@@H]1NC(=O)[C@H](Cc2ccccc2)NC(=O)[C@H](CCCNC(=N)N)NC(=O)[C@@H](CCCNC(=N)N)NC(=O)[C@H](CCC(=O)N[C@@H](CCCCNC(=S)Nc2ccc3c(c2)C(=O)OC32c3ccc(O)cc3Oc3cc(O)ccc32)C(N)=O)NC(=O)[C@H](CCCNC(=N)N)NC(=O)[C@H](Cc2ccc3ccccc3c2)NC1=O` [Peptide 290-10F, c(rRFRΦRQ)] (cyclo([dR]RFR[2Nal]RE(Lys(5-FITC)NH2))), the “Uptake Efficiency (%)” value in test [1] was found to be 52%. In addition, the Kd in test [2] (setting [4]) came to 1.2 mM; in test [3] (setting [5]), 0.17 mM; in test [3] (setting [6]) it was 0.87 mM.
Take `N=C(N)NCCC[C@@H]1NC(=O)[C@H](Cc2ccc3ccccc3c2)NC(=O)[C@@H](Cc2ccccc2)NC(=O)[C@H](CCC(=O)N[C@@H](CCCCNC(=S)Nc2ccc3c(c2)C(=O)OC32c3ccc(O)cc3Oc3cc(O)ccc32)C(N)=O)NC(=O)[C@@H](CCCNC(=N)N)NC(=O)[C@H](CCCNC(=N)N)NC(=O)[C@@H](CCCNC(=N)N)NC1=O` [Peptide 290-9F, c(fΦRrRrQ)] (cyclo([dF][2Nal]R[dR]R[dR]E(Lys(5-FITC)NH2))): the “Uptake Efficiency (%)” value in test [1] turned out to be 602%. Moreover, the Kd in test [2] (pH 5.5, read-out: Membrane Binding KD (mM) SUV1 pH 5.5) was determined as 0.81 mM; in test [2] (setting [4]), 1.2 mM; in test [3] (setting [5]) it was 0.012 mM; in test [3] (setting [6]), 0.033 mM.
Take “RKKRRQRRR-miniPEG-DE(pCAP)LI (RKKRRQRRR[AEEA]DE[Ala(7-OPO3H2-coumarin-4-yl)]LI) [Tat-PCP, reference compound]”: the “CAP fluorescence in cells (confocal)” value with HEK293 cells is “weak fluorescence”. Moreover, in the test on HeLa cells, the “Mean fluorescence intensity (MFI) of CAP” value amounted to 290 AU.
For the molecule `N=C(N)NCCC[C@@H]1NC(=O)[C@H](CCC(=O)N[C@@H](CCCCNC(=S)Nc2ccc3c(c2)C(=O)OC32c3ccc(O)cc3Oc3cc(O)ccc32)C(N)=O)NC(=O)[C@H](CCCNC(=N)N)NC(=O)[C@H](Cc2ccc3ccccc3c2)NC(=O)[C@H](CCCNC(=N)N)NC(=O)[C@H](Cc2ccccc2)NC(=O)[C@H](CCCNC(=N)N)NC(=O)[C@H](Cc2ccccc2)NC1=O` [Peptide 290-8F] (cyclo(RFRFR[2Nal]RE(Lys(5-FITC)NH2))), the “Uptake Efficiency (%)” value in test [1] worked out at 98%. The Kd in test [2] (setting [4]) amounted to 0.4 mM; in test [3] (setting [5]), 0.082 mM; in test [3] (setting [6]) it was 0.39 mM.
Turning to “cyclo(FΦRRRRQ)-AAAAA-K(Rho) (cyclo(F[2Nal]RRRRQAAAAAK(RhodamineB)); not fully specified (C-terminus, bridges); printed as cyclo(FΦRRRRQ)-AAAAA-K(Rho)) [cFΦR4-A5]”, the “Intracellular fluorescence of rhodamine B-labeled peptide” value with HEK293 cells is “both punctuate and diffuse fluorescence”.
For the molecule “cyclo(FΦRRRRQ)-miniPEG-DE(pCAP)LI (cyclo(F[2Nal]RRRRQ[AEEA]DE[Ala(7-OPO3H2-coumarin-4-yl)]LI); not fully specified (C-terminus, bridges); printed as cyclo(FΦRRRRQ)-miniPEG-DE(pCAP)LI) [cFΦR4-PCP]”, the “CAP fluorescence in cells (confocal)” value in the test on HEK293 cells is “diffuse blue fluorescence throughout the cell”. In the test on HeLa cells, the “Mean fluorescence intensity (MFI) of CAP” value was 3510 AU. Also, the “MFI of CAP in the presence of sodium pervanadate” value in the test with HeLa cells (PTP inhibitor sodium pervanadate) was found to be 70 AU.
In the case of “cyclo(FΦRRRRQ)-RRRRR-K(Rho) (cyclo(F[2Nal]RRRRQRRRRRK(RhodamineB)); not fully specified (C-terminus, bridges); printed as cyclo(FΦRRRRQ)-RRRRR-K(Rho)) [cFΦR4-R5]”, in the test on HEK293 cells, the “Intracellular fluorescence of rhodamine B-labeled peptide” value was “both punctuate and diffuse fluorescence”.
`N=C(N)NCCC[C@@H]1NC(=O)[C@H](CCC(=O)N[C@@H](CCCCNC(=S)Nc2ccc3c(c2)C(=O)OC32c3ccc(O)cc3Oc3cc(O)ccc32)C(N)=O)NC(=O)[C@H](CCCNC(=N)N)NC(=O)[C@H](Cc2ccc3ccccc3c2)NC(=O)[C@H](CCCNC(=N)N)NC(=O)[C@H](Cc2ccccc2)NC(=O)[C@H](CCCNC(=N)N)NC1=O` [Peptide 290-3F, c(RRFRΦRQ)] (cyclo(RRFR[2Nal]RE(Lys(5-FITC)NH2))): the “Uptake Efficiency (%)” value in test [1] is listed as 163%. Also, the results for the dissociation constant (Kd) in test [2] (setting [4]), in test [3] (setting [5]) and in test [3] (setting [6]) were 0.22 mM, 0.26 mM and 0.4 mM, respectively.
Regarding “RRRRRRRRR-miniPEG-DE(pCAP)LI (RRRRRRRRRXDEXLI; miniPEG linker, pCAP residue; (10)..(10) 8-amino-3,6-dioxaoctanoic acid; (13)..(13) phosphocoumaryl amino propionic acid) [Peptide R9-PCP, reference compound]”, the “CAP fluorescence in cells (confocal)” value in the test on HEK293 cells is on record as “weak fluorescence”. The “Mean fluorescence intensity (MFI) of CAP” value in the test on HeLa cells came to 960 AU.
Regarding “RQIKIWFQNRRMKWKK-miniPEG-DE(pCAP)LI (RQIKIWFQNRRMKWKKXDEXLI; miniPEG linker; pCAP residue; (17)..(17) 8-amino-3,6-dioxaoctanoic acid; (20)..(20) phosphocoumaryl amino propionic acid) [Antp-PCP, reference compound]”, the “CAP fluorescence in cells (confocal)” value with HEK293 cells is recorded as “weak fluorescence”. Also, the “Mean fluorescence intensity (MFI) of CAP” value in the test on HeLa cells is 400 AU.
On to `N=C(N)NCCC[C@@H]1NC(=O)[C@@H](CCCNC(=N)N)NC(=O)[C@H](CCCNC(=N)N)NC(=O)[C@@H](CCCNC(=N)N)NC(=O)[C@@H](Cc2ccc3ccccc3c2)NC(=O)[C@H](Cc2ccccc2)NC(=O)[C@@H](CCC(=O)N[C@@H](CCCCNC(=S)Nc2ccc3c(c2)C(=O)OC32c3ccc(O)cc3Oc3cc(O)ccc32)C(N)=O)NC1=O` [Peptide 290-18F, c(FϕrRrRq)] (cyclo(F[d2Nal][dR]R[dR]R[dE](Lys(5-FITC)NH2))), for which the “Uptake Efficiency (%)” value in test [1] amounted to 205%. For the same molecule, the Kd in test [2] (setting [4]) was determined as 0.75 mM; in test [3] (setting [5]), 0.022 mM; in test [3] (setting [6]), 0.04 mM.

Broadly, the Kd is a measure of binding affinity in units of concentration.
